Experimental data reported in patent publication US9988400B2 (Genentech, Inc., priority 2013, dated 2018).

Target: T1, HEK cells stably transfected with tetracycline inducible hNR1 and hNR2A (Homo sapiens, UniProt Q05586+Q12879)
T1 construct: expressed in transfected cells; host or cells: HEK cells, stably transfected, tetracycline/doxycycline inducible
Test: Assay 1: Cell-Based Assay, cytosolic calcium response to positive allosteric modulators (with 30 μM glycine and 300 nM L-glutamate, EC30)
Details: for EC50: cytosolic calcium response, with 30 μM glycine and 300 nM L-glutamate (EC30), — = no plateau was reached; for Max %: responses scaled relative to 100 μM L-glutamate maximal response (100%) and 0 μM L-glutamate (0%)
Procedure, shortened: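 Cells induced 24 h with 7.5 μg mL^−1 doxycycline plus 500 μM (+)-ketamine, loaded 60 min at 37 °C with calcium dye in Mg-free HBSS (1.8 mM Ca, probenecid, 10 μM (+)-ketamine, pH 7.15). Peak RFU over 5 min after compound addition, scaled to 100 μM L-glutamate (100%) and 0 μM (0%); four-parameter Hill fit for EC50, max % if no plateau.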

T1 sequence (Q12879 23-1464, other chains not shown): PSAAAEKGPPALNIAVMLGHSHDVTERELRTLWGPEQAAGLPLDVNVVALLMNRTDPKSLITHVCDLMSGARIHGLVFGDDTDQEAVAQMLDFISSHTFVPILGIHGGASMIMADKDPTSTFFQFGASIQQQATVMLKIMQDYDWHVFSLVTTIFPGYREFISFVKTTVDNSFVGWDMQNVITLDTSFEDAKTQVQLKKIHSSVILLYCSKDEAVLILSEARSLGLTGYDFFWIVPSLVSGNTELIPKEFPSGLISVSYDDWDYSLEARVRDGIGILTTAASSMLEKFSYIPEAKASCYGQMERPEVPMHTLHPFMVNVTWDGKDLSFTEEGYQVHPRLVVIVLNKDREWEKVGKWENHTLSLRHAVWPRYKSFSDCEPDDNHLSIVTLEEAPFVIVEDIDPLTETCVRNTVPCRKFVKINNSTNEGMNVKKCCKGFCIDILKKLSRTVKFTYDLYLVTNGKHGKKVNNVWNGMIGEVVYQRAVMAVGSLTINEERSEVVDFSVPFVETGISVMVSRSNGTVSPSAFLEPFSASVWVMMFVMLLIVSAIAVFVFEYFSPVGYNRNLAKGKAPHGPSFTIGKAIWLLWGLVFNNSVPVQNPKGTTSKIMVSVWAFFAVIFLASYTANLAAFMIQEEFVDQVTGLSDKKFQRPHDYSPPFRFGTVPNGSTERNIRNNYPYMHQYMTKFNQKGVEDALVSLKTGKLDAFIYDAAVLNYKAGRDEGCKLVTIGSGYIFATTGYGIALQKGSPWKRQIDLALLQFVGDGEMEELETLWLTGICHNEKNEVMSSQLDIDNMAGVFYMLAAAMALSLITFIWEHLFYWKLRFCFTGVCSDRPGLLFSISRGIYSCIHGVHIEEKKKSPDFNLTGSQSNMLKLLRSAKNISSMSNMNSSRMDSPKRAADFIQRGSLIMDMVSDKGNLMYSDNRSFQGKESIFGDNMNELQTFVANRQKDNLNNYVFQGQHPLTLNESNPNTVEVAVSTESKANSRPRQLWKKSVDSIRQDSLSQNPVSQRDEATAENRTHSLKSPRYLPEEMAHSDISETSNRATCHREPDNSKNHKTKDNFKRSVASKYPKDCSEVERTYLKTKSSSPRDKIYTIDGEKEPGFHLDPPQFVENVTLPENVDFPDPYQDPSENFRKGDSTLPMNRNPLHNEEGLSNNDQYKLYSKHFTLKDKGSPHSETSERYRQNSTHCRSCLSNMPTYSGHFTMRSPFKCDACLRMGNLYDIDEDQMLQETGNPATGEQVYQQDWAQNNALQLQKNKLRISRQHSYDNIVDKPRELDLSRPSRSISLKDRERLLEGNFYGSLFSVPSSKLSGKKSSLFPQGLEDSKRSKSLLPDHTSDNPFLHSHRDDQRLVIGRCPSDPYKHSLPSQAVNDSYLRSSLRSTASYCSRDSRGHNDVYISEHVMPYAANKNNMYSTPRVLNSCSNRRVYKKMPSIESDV

CCN(Cc1cc(=O)n2c(C(F)(F)F)c(C)sc2n1)c1ccc(F)cc1 [Example 5.38, 7-((ethyl(4-fluorophenyl)amino)methyl)-2-methyl-3-(trifluoromethyl)-5H-thiazolo[3,2-a]pyrimidin-5-one] showed an EC50 (Table 2) of 1.1 µM and a Max % (Table 2) of 147%.

CCNC(=O)c1c(C)sc2nc(Cc3cccc(NS(C)(=O)=O)c3)cc(=O)n12 [Example 21.39, N-ethyl-2-methyl-7-(3-(methylsulfonamido)benzyl)-5-oxo-5H-thiazolo[3,2-a]pyrimidine-3-carboxamide] showed a Max % (Table 2) of 62.6%.

For CCC(=O)c1c(C)sc2nc(Cn3nc(C(F)(F)F)cc3Cl)cc(=O)n12 [compound 140, 7-[[5-chloro-3-(trifluoromethyl)pyrazol-1-yl]methyl]-2-methyl-3-propanoyl-thiazolo[3,2-a]pyrimidin-5-one], the EC50 (Table 3) was 0.147 µM.

CCN(Cc1cc(=O)n2c(COC)c(C)sc2n1)c1ccc(F)cc1 [Example 10.13, 7-[[ethyl(4-fluorophenyl)amino]methyl]-3-(methoxymethyl)-2-methyl-5H-[1,3]thiazolo[3,2-a]pyrimidin-5-one] gave an EC50 (Table 2) of 0.345 µM and a Max % (Table 2) of 165%.

For COCc1c(C)sc2nc(COc3ccc(F)cc3)cc(=O)n12 [Example 4.31, 7-(4-Fluorophenoxymethyl)-3-(methoxymethyl)-2-methyl-5H-[1,3]thiazolo[3,2-a]pyrimidin-5-one], the Max % (Table 2) was 43.3%.

For Cc1sc2nc(Cn3nc(C#N)cc3C)cc(=O)n2c1[C@@H]1C[C@H]1CO (relative stereo) [Example 15.21, 1-[[3-[trans-2-(hydroxymethyl)cyclopropyl]-2-methyl-5-oxo-thiazolo[3,2-a]pyrimidin-7-yl]methyl]-5-methyl-pyrazole-3-carbonitrile], the EC50 (Table 2) was 1.6 µM and the Max % (Table 2) was 161%.

Cc1sc2nc(Cn3nc(C4CC4)cc3C(F)(F)F)cc(=O)n2c1C#N [Example 17.3, 7-((3-cyclopropyl-5-(trifluoromethyl)-1H-pyrazol-1-yl)methyl)-2-methyl-5-oxo-5H-thiazolo[3,2-a]pyrimidine-3-carbonitrile] showed a Max % (Table 2) of 104%.

CC(=O)c1c(C)sc2nc(Cn3nc(C4CC4)cc3C(F)(F)F)cc(=O)n12 [Example 18.3, 3-acetyl-7-((3-cyclopropyl-5-(trifluoromethyl)-1H-pyrazol-1-yl)methyl)-2-methyl-5H-thiazolo[3,2-a]pyrimidin-5-one] was tested, and the EC50 (Table 2) was 25.4 µM and the Max % (Table 2) was 129%.

With C/C(=N\O)c1c(C)sc2nc(COc3ccc(F)cc3)cc(=O)n12 [Example 2.8, 7-(4-Fluorophenoxymethyl)-3-[1-(hydroxyimino)ethyl]-2-methyl-5H-[1,3]thiazolo[3,2-a]pyrimidin-5-one] the Max % (Table 2) was 137%.

Cc1sc2nc(COc3ccc(F)cc3)cc(=O)n2c1C(=O)NCC1COC1 [Example 1.13, 7-((4-fluorophenoxy)methyl)-2-methyl-N-(oxetan-3-ylmethyl)-5-oxo-5H-thiazolo[3,2-a]pyrimidine-3-carboxamide] showed a Max % (Table 2) of 41.6%.

Work on Cc1sc2nc(COc3ccc(F)cc3)cc(=O)n2c1C(=O)NCCCO [Example 1.14, 7-((4-fluorophenoxy)methyl)-N-(3-hydroxypropyl)-2-methyl-5-oxo-5H-thiazolo[3,2-a]pyrimidine-3-carboxamide] yielded a Max % (Table 2) of 42.7%.

In the case of CNC(=O)c1c(C)sc2nc(Cc3cccc(CO)c3F)cc(=O)n12 [Example 21.24, 7-[[2-fluoro-3-(hydroxymethyl)phenyl]methyl]-N,2-dimethyl-5-oxo-thiazolo[3,2-a]pyrimidine-3-carboxamide], the EC50 (Table 2) is reported as 34.5 µM and the Max % (Table 2) is reported as 102%.

CCNC(=O)c1c(C)sc2nc(Cc3cc(F)cc(C#N)c3)cc(=O)n12 [Example 21.10, 7-(3-cyano-5-fluorobenzyl)-N-ethyl-2-methyl-5-oxo-5H-thiazolo[3,2-a]pyrimidine-3-carboxamide] was tested, and the Max % (Table 2) was 70.3%.

Compound CCN(Cc1cc(=O)n2c(Br)c(C3CC3)sc2n1)c1ccc(F)cc1 [Example 5.54, 3-bromo-2-cyclopropyl-7-[(N-ethyl-4-fluoro-anilino)methyl]thiazolo[3,2-a]pyrimidin-5-one] has an EC50 (Table 2) of 51.5 µM and a Max % (Table 2) of 129%.

CNC(=O)c1c(C)sc2nc(Cc3cccc(C#N)c3F)c(F)c(=O)n12 [Example 21.27] showed an EC50 (Table 2) of 16 µM and a Max % (Table 2) of 122%.

Cc1sc2nc(CN(C)c3ccc(F)cc3)cc(=O)n2c1-c1cncnc1 [Example 5.2, 7-(((4-fluorophenyl)(methyl)amino)methyl)-2-methyl-3-(pyrimidin-5-yl)-5H-thiazolo[3,2-a]pyrimidin-5-one] was tested, and the EC50 (Table 2) was 5.7 µM and the Max % (Table 2) was 148%.

For CNC(=O)Cc1c(C)sc2nc(Cc3cccc(C4CC4)c3F)cc(=O)n12 [compound 11, 2-[7-[(3-cyclopropyl-2-fluoro-phenyl)methyl]-2-methyl-5-oxo-thiazolo[3,2-a]pyrimidin-3-yl]-N-methyl-acetamide], the EC50 (Table 3) was 1.14 µM.

CC1CC1c1c(Cl)sc2nc(Cc3cccc(C#N)c3F)cc(=O)n12 (centres unmarked) [compound 85, 3-[[2-chloro-3-(2-methylcyclopropyl)-5-oxo-thiazolo[3,2-a]pyrimidin-7-yl]methyl]-2-fluoro-benzonitrile] gave an EC50 (Table 3) of 2.39 µM.

CNC(=O)c1c(C)sc2nc(Cn3nc(Cl)cc3C(F)(F)F)cc(=O)n12 [compound 97, 7-[[3-chloro-5-(trifluoromethyl)pyrazol-1-yl]methyl]-N,2-dimethyl-5-oxo-thiazolo[3,2-a]pyrimidine-3-carboxamide] showed an EC50 (Table 3) of 5.11 µM.

In the case of Cc1sc2nc(Cn3nc(C(F)(F)F)cc3Cl)cc(=O)n2c1-c1ccn[nH]1 [compound 132], the EC50 (Table 3) is reported as 2.04 µM.

CCNC(=O)c1csc2nc(Cc3cccc(C#N)c3F)cc(=O)n12 [Example 21.33, 7-(3-cyano-2-fluorobenzyl)-N-ethyl-5-oxo-5H-thiazolo[3,2-a]pyrimidine-3-carboxamide] was tested, and the Max % (Table 2) was 82.5%.

Cc1sc2nc(Cc3cccc(C(F)(F)F)c3)cc(=O)n2c1[C@@H]1C[C@H]1CO (relative stereo) [Example 20.5, 3-(trans-2-(hydroxymethyl)cyclopropyl)-2-methyl-7-(3-(trifluoromethyl)benzyl)-5H-thiazolo[3,2-a]pyrimidin-5-one] showed an EC50 (Table 2) of 24 µM and a Max % (Table 2) of 124%.

Work on CCN(Cc1cc(=O)n2c(-c3cncc(C(F)(F)F)c3)c(C)sc2n1)c1ccc(F)cc1 [Example 5.36, 7-[(N-ethyl-4-fluoro-anilino)methyl]-2-methyl-3-[5-(trifluoromethyl)-3-pyridyl]thiazolo[3,2-a]pyrimidin-5-one] yielded a Max % (Table 2) of 61.3%.

Cc1sc2nc(Cc3cccc(C#N)c3F)cc(=O)n2c1C(=O)NCC(F)(F)F [Example 25.1, 7-(3-cyano-2-fluorobenzyl)-2-methyl-5-oxo-N-(2,2,2-trifluoroethyl)-5H-thiazolo[3,2-a]pyrimidine-3-carboxamide] was tested, and the EC50 (Table 2) was 18.7 µM.

Cc1sc2nc(COc3ccc(F)cc3)cc(=O)n2c1C(O)C(F)(F)F (centres unmarked) [Example 2.10, 7-((4-fluorophenoxy)methyl)-2-methyl-3-(2,2,2-trifluoro-1-hydroxyethyl)-5H-thiazolo[3,2-a]pyrimidin-5-one] showed a Max % (Table 2) of 119%.

C=C(C)c1c(C(F)(F)F)sc2nc(Cn3nc(C(F)(F)F)cc3Cl)cc(=O)n12 [compound 169, 7-[[5-chloro-3-(trifluoromethyl)pyrazol-1-yl]methyl]-3-isopropenyl-2-(trifluoromethyl)thiazolo[3,2-a]pyrimidin-5-one] gave an EC50 (Table 3) of 7.46 µM.

CNC(=O)c1c(C)sc2nc(Cc3cccc(Cl)c3)cc(=O)n12 [Example 21.16, 7-[(3-chlorophenyl)methyl]-N,2-dimethyl-5-oxo-thiazolo[3,2-a]pyrimidine-3-carboxamide] gave an EC50 (Table 2) of 14.3 µM and a Max % (Table 2) of 107%.

Work on Cc1sc2nc(Cc3ccc(F)c(C#N)c3)cc(=O)n2c1[C@@H]1C[C@H]1CO (relative stereo) [Example 20.9, 2-fluoro-5-((3-(trans-2-(hydroxymethyl)cyclopropyl)-2-methyl-5-oxo-5H-thiazolo[3,2-a]pyrimidin-7-yl)methyl)benzonitrile] yielded an EC50 (Table 2) of 13.9 µM and a Max % (Table 2) of 133%.

CCNC(=O)c1c(C)sc2nc(Cc3cc(F)ccc3C3CC3)cc(=O)n12 [Example 21.65, 7-(2-cyclopropyl-5-fluorobenzyl)-N-ethyl-2-methyl-5-oxo-5H-thiazolo[3,2-a]pyrimidine-3-carboxamide] gave a Max % (Table 2) of 96.3%.

Cc1sc2nc(Cn3nc(Cl)cc3C(F)(F)F)cc(=O)n2c1C(C)O (centres unmarked) [compound 111, 7-[[3-chloro-5-(trifluoromethyl)pyrazol-1-yl]methyl]-3-(1-hydroxyethyl)-2-methyl-thiazolo[3,2-a]pyrimidin-5-one] gave an EC50 (Table 3) of 6 µM.

Cc1sc2nc(Cc3cccc(C(F)(F)F)c3F)cc(=O)n2c1C1CC1O (centres unmarked) [compound 100, 7-[[2-fluoro-3-(trifluoromethyl)phenyl]methyl]-3-(2-hydroxycyclopropyl)-2-methyl-thiazolo[3,2-a]pyrimidin-5-one] gave an EC50 (Table 3) of 11.6 µM.

Cc1sc2nc(Cn3ccc(C(F)(F)F)n3)cc(=O)n2c1C1CC1C#N (single isomer, unassigned) [compound 272] showed an EC50 (Table 3) of 0.252 µM.

In the case of Cc1sc2nc(CN3c4ccc(F)cc4CC3C)cc(=O)n2c1-c1cncnc1 (centres unmarked) [Example 5.48, 7-((5-fluoro-2-methylindolin-1-yl)methyl)-2-methyl-3-(pyrimidin-5-yl)-5H-thiazolo[3,2-a]pyrimidin-5-one], the EC50 (Table 2) is reported as 6.2 µM and the Max % (Table 2) is reported as 136%.

With Cc1sc2nc(COc3ccc(F)cc3)cc(=O)n2c1CCCO [Example 4.30, 7-(4-Fluorophenoxymethyl)-3-(3-hydroxypropyl)-2-methyl-5H-[1,3]thiazolo[3,2-a]pyrimidin-5-one] the EC50 (Table 2) was 15.5 µM and the Max % (Table 2) was 75.4%.
